Reference: US20150010928A1, “MEANS AND METHODS FOR ASSESSING AN ENDOCRINE DISEASE OR DISORDER” (priority 2012, published 2015)
Marks after values point to notes of the source that are not given here.

System: male rats
Test: Plasma metabolite profiling (GC-MS, LC-MS, SPE-LC-MS) in male rats dosed once daily over 28 days (OECD 407)
Assay type: in vivo, rat
Conditions: high dose; for Mannose: Table 15c
In short: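 Metabolites were measured by GC-MS (derivatised) and reversed-phase LC-MS, with steroids by online SPE-LC-MS, in plasma drawn from fasted rats on days 7, 14 and 28 of once-daily dosing (5/sex/group). Values are ratios versus sex-matched untreated controls, normalized to pool samples, with Welch-test p-values.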

## C[C@]12C=CC3=C4CCC(=O)C=C4CCC3C1CC[C@@H]2O (stereo partly drawn) [Trenbolone]
m7, male rats
  Mannose: 1.35 *
m7, male rats, Table 16
  3,4-Dihydroxyphenylacetic acid (DOPAC): 1.08
  3,4-Dihydroxyphenylglycol (DOPEG): 1.12
  Androstenedione: 0.09 *
  Citrate: 0.89 *
  Glycerol, polar fraction: 0.66 *
  Histamine: 1.35
  Ketoleucine: 0.93
  Lactate: 0.68 *
  Metanephrine: 0.86
  Pantothenic acid: 0.65 *
  Phosphatidylcholine (C18:1,C18:2): 0.76 *
  Phosphatidylcholine No 04: 0.44 *
  TAG (C18:1,C18:2): 0.77 *
  Testosterone: 0.1 *
  Tyrosine: 0.93 *
m7, male rats, Table 15d
  3,4-Dihydroxyphenylacetic acid (DOPAC): 1.08
  18-Hydroxy-11-deoxycorticosterone: 0.4
  Glycerol phosphate, lipid fraction: 0.26 *
  Homovanillic acid (HVA): 0.6 *
  Kynurenic acid: 0.66 *
  Lysophosphatidylcholine (C18:1): 0.89 *
  Lysophosphatidylethanolamine (C22:5): 0.75 *
  Phosphate, lipid fraction: 0.47 *
  Phosphatidylcholine (C18:0,C18:1): 0.62 *
  Sphingomyelin (d18:1, C16:0): 0.23 *
  Sphingomyelin (d18:1,C23:0): 0.25 *
  Sphingomyelin (d18:1,C24:0): 0.37 *
  Sphingomyelin (d18:2,C18:0): 0.24 *
  TAG No 02: 0.57 *
  myo-Inositol, lipid fraction: 0.24 *
m7, Table 14b
  Cholesterol: 0.22
  Choline plasmalogen No 02: 0.44
  Lignoceric acid (C24:0): 0.14
  Sphingomyelin (d18:1, C16:0): 0.23
  Sphingomyelin (d18:2, C16:0): 0.22
  erythro-Sphingosine (d18:1): 0.1
m14, male rats
  Mannose: 1.4 *
m14, male rats, Table 16
  3,4-Dihydroxyphenylacetic acid (DOPAC): 0.75 *
  3,4-Dihydroxyphenylglycol (DOPEG): 0.86 *
  Androstenedione: 0.02 *
  Citrate: 0.89 *
  Glycerol, polar fraction: 0.51 *
  Histamine: 1.6
  Ketoleucine: 0.85 *
  Lactate: 0.94
  Metanephrine: 0.48 *
  Pantothenic acid: 0.82 *
  Phosphatidylcholine (C18:1,C18:2): 0.74 *
  Phosphatidylcholine No 04: 0.42 *
  TAG (C18:1,C18:2): 0.45 *
  Testosterone: 0.06 *
  Tyrosine: 1
m14, male rats, Table 15d
  3,4-Dihydroxyphenylacetic acid (DOPAC): 0.75 *
  18-Hydroxy-11-deoxycorticosterone: 0.47 *
  Glycerol phosphate, lipid fraction: 0.24 *
  Homovanillic acid (HVA): 0.5 *
  Kynurenic acid: 0.8 *
  Lysophosphatidylcholine (C18:1): 0.82 *
  Lysophosphatidylethanolamine (C22:5): 0.83 *
  Phosphate, lipid fraction: 0.44 *
  Phosphatidylcholine (C18:0,C18:1): 0.63 *
  Sphingomyelin (d18:1, C16:0): 0.22 *
  Sphingomyelin (d18:1,C23:0): 0.33 *
  Sphingomyelin (d18:1,C24:0): 0.41 *
  Sphingomyelin (d18:2,C18:0): 0.26 *
  TAG No 02: 0.74 *
  myo-Inositol, lipid fraction: 0.29 *
m14, Table 14b
  Cholesterol: 0.22
  Choline plasmalogen No 02: 0.52
  Lignoceric acid (C24:0): 0.17
  Sphingomyelin (d18:1, C16:0): 0.22
  Sphingomyelin (d18:2, C16:0): 0.18
  erythro-Sphingosine (d18:1): 0.06
m28, male rats
  Mannose: 1.31 *
m28, male rats, Table 16
  3,4-Dihydroxyphenylacetic acid (DOPAC): 0.54 *
  3,4-Dihydroxyphenylglycol (DOPEG): 0.72 *
  Androstenedione: 0.02 *
  Citrate: 1.03
  Glycerol, polar fraction: 0.61 *
  Histamine: 0.65 *
  Ketoleucine: 0.72 *
  Lactate: 0.76 *
  Metanephrine: 0.66 *
  Pantothenic acid: 0.77 *
  Phosphatidylcholine (C18:1,C18:2): 0.96
  Phosphatidylcholine No 04: 0.81 *
  TAG (C18:1,C18:2): 1.26
  Testosterone: 0.06 *
  Tyrosine: 0.82 *
m28, male rats, Table 15d
  3,4-Dihydroxyphenylacetic acid (DOPAC): 0.54 *
  18-Hydroxy-11-deoxycorticosterone: 0.52 *
  Glycerol phosphate, lipid fraction: 0.61 *
  Homovanillic acid (HVA): 0.49 *
  Kynurenic acid: 0.72 *
  Lysophosphatidylcholine (C18:1): 0.92
  Lysophosphatidylethanolamine (C22:5): 0.8
  Phosphate, lipid fraction: 0.66 *
  Phosphatidylcholine (C18:0,C18:1): 0.87
  Sphingomyelin (d18:1, C16:0): 0.35 *
  Sphingomyelin (d18:1,C23:0): 0.55 *
  Sphingomyelin (d18:1,C24:0): 0.54 *
  Sphingomyelin (d18:2,C18:0): 0.35 *
  TAG No 02: 0.51 *
  myo-Inositol, lipid fraction: 0.54 *
m28, Table 14b
  Cholesterol: 0.4
  Choline plasmalogen No 02: 0.55
  Lignoceric acid (C24:0): 0.35
  Sphingomyelin (d18:1, C16:0): 0.35
  Sphingomyelin (d18:2, C16:0): 0.28
  erythro-Sphingosine (d18:1): 0.21
